Results: PubChem BioAssay AID248 (DTP/NCI, 2004)
Where “and” joins values, the source holds several entries; their conditions need not be identical. Equal entries are not always repeated. Inconclusive results and toxic doses are left out.

Test system: L1210 leukemia ip in BDF1 mice, survival T/C
Assay: NCI In Vivo Anticancer Drug Screen. Data for tumor model L1210 Leukemia (intraperitoneal) in B6D2F1 (BDF1) mice
Settings: endpoint: mean survival time, higher = longer survival
Procedure, shortened: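 Tumor was transplanted into mice, which were then dosed with test compound or vehicle alone. Survival was recorded for each group, and the treated figure was expressed relative to the control figure.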

[1] = dose: 100.0 mg/kg/injection, schedule: Q04DX003 (ip), vehicle: saline
[2] = dose: 200.0 mg/kg/injection, schedule: Q04DX003 (ip), vehicle: saline
[3] = dose: 100.0 mg/kg/injection, schedule: Q01DX001 (ip), vehicle: Klucel (hydroxypropylcellulose) (HPC)
[4] = dose: 100.0 mg/kg/injection, schedule: Q04DX003 (ip), vehicle: Klucel (hydroxypropylcellulose) (HPC)
[5] = dose: 200.0 mg/kg/injection, schedule: Q01DX001 (ip), vehicle: Klucel (hydroxypropylcellulose) (HPC)
[6] = dose: 200.0 mg/kg/injection, schedule: Q04DX003 (ip), vehicle: Klucel (hydroxypropylcellulose) (HPC)
[7] = dose: 400.0 mg/kg/injection, schedule: Q01DX001 (ip), vehicle: Klucel (hydroxypropylcellulose) (HPC)
[8] = dose: 400.0 mg/kg/injection, schedule: Q04DX003 (ip), vehicle: Klucel (hydroxypropylcellulose) (HPC)
[9] = dose: 100.0 mg/kg/injection, schedule: Q04DX002 (ip), vehicle: saline
[10] = dose: 200.0 mg/kg/injection, schedule: Q04DX002 (ip), vehicle: saline
[11] = dose: 9.5 mg/kg/injection, schedule: Q01DX001 (ip), vehicle: other
[12] = dose: 19.0 mg/kg/injection, schedule: Q01DX001 (ip), vehicle: other
[13] = dose: 38.0 mg/kg/injection, schedule: Q01DX001 (ip), vehicle: other
[14] = dose: 100.0 mg/kg/injection, schedule: Q01DX009 (ip), vehicle: Klucel (hydroxypropylcellulose) (HPC)
[15] = dose: 200.0 mg/kg/injection, schedule: Q01DX009 (ip), vehicle: Klucel (hydroxypropylcellulose) (HPC)
[16] = dose: 400.0 mg/kg/injection, schedule: Q01DX009 (ip), vehicle: Klucel (hydroxypropylcellulose) (HPC)
[17] = dose: 100.0 mg/kg/injection, schedule: Q01DX001 (ip), vehicle: saline
[18] = dose: 200.0 mg/kg/injection, schedule: Q01DX001 (ip), vehicle: saline
[19] = dose: 400.0 mg/kg/injection, schedule: Q01DX001 (ip), vehicle: saline

CN(C)CCNC1c2ccccc2CCc2ccccc21
T/C (dose: 18.75 mg/kg/injection, schedule: Q04DX003 (ip), vehicle: saline): 98 % of control
T/C (dose: 37.5 mg/kg/injection, schedule: Q04DX003 (ip), vehicle: saline): 104 % of control
T/C (dose: 75.0 mg/kg/injection, schedule: Q04DX003 (ip), vehicle: saline): 101 % of control

ClCC1=Nc2c(Cl)ncnc2NN1
T/C (dose: 6.25 mg/kg/injection, schedule: Q04DX003 (ip), vehicle: saline with Tween-80): 94 % of control
T/C (dose: 12.5 mg/kg/injection, schedule: Q04DX003 (ip), vehicle: saline with Tween-80): 96 % of control
T/C (dose: 25.0 mg/kg/injection, schedule: Q01DX001 (ip), vehicle: saline with Tween-80): 95 % of control
T/C (dose: 25.0 mg/kg/injection, schedule: Q04DX003 (ip), vehicle: saline with Tween-80): 91 % of control

COc1cc(C(=O)O)ccc1N
T/C (dose: 100.0 mg/kg/injection, schedule: Q04DX003 (ip), vehicle: saline with Tween-80): 102 % of control
T/C (dose: 200.0 mg/kg/injection, schedule: Q04DX003 (ip), vehicle: saline with Tween-80): 104 % of control
T/C (dose: 400.0 mg/kg/injection, schedule: Q04DX003 (ip), vehicle: saline with Tween-80): 102 % of control

NC(=O)CSSCC(N)=O
T/C [1]: 98 % of control
T/C [2]: 93 % of control

O=[N+]([O-])c1cccc(/C=C/S(=O)(=O)c2ccccc2)c1
T/C [3]: 107 % of control
T/C [4]: 103 % of control
T/C [5]: 95 % of control
T/C [6]: 103 % of control
T/C [7]: 104 % of control
T/C [8]: 100 % of control

CCCCN(CCCC)C(=N)C(=N)N(CCCC)CCCC
T/C (dose: 50.0 mg/kg/injection, schedule: Q04DX002 (ip), vehicle: saline with Tween-80): 100 % of control
T/C (dose: 100.0 mg/kg/injection, schedule: Q04DX002 (ip), vehicle: saline with Tween-80): 100 % of control

O=c1ncccn1Cc1ccccc1
T/C [3]: 112 % of control
T/C [5]: 98 % of control
T/C [7]: 107 % of control

O=C1CCCC(=O)CCC1
T/C (dose: 50.0 mg/kg/injection, schedule: Q04DX002 (ip), vehicle: saline): 93 % of control
T/C [9]: 93 % of control
T/C [10]: 104 % of control

CCOP(=O)(OCC)C1=C(P(=O)(OCC)OCC)CCCC1
T/C [11]: 103 % of control
T/C [12]: 105 % of control
T/C [13]: 95 % of control

CC(=O)Oc1cc2c(cc1[N+](=O)[O-])OCO2
T/C [3]: 104 % of control
T/C [4]: 94 % of control
T/C [5]: 94 % of control
T/C [6]: 93 % of control
T/C [7]: 98 % of control
T/C [8]: 105 % of control

CC(C)COC(=O)CCCc1ccc(N(CCCl)CCCl)cc1
T/C [9]: 121 % of control
T/C [10]: 111 % of control

O=C(Cl)CNS(=O)(=O)c1ccccc1
T/C (dose: 100.0 mg/kg/injection, schedule: Q01DX001 (ip), vehicle: other): 106 % of control
T/C (dose: 200.0 mg/kg/injection, schedule: Q01DX001 (ip), vehicle: other): 108 % of control
T/C (dose: 400.0 mg/kg/injection, schedule: Q01DX001 (ip), vehicle: other): 111 % of control

Cc1cc(=O)c(O)co1
T/C [14]: 98 % of control
T/C [4]: 101 % of control
T/C [15]: 93 % of control
T/C [6]: 101 % of control
T/C [16]: 93 % of control
T/C [8]: 101 % of control

CCCC1(CCC)NC(=O)N(CC(=O)OCC)C1=O
T/C (dose: 100.0 mg/kg/injection, schedule: Q01DX009 (ip), vehicle: saline with Tween-80): 94 % of control
T/C (dose: 200.0 mg/kg/injection, schedule: Q01DX009 (ip), vehicle: saline with Tween-80): 96 % of control
T/C (dose: 400.0 mg/kg/injection, schedule: Q01DX009 (ip), vehicle: saline with Tween-80): 102 % of control

CSc1cc(N)nc2c1ncn2C1OC(CO)C(O)C1O (centres undefined)
T/C [17]: 113 % of control
T/C [18]: 93 % of control
T/C [19]: 103 % of control

Cc1cc(C)c(-c2c(C)cc(C)cc2CBr)c(CBr)c1
T/C [14]: 108 % of control
T/C [15]: 99 % of control
T/C [16]: 99 % of control

Cc1cc(N(CCOS(C)(=O)=O)CCOS(C)(=O)=O)ccc1C=Nc1ccccc1C(=O)O
T/C (dose: 2.5 mg/kg/injection, schedule: Q04DX003 (ip), vehicle: Klucel (hydroxypropylcellulose) (HPC)): 124 % of control
T/C (dose: 5.0 mg/kg/injection, schedule: Q04DX003 (ip), vehicle: Klucel (hydroxypropylcellulose) (HPC)): 113 % of control
T/C (dose: 10.0 mg/kg/injection, schedule: Q04DX003 (ip), vehicle: Klucel (hydroxypropylcellulose) (HPC)): 109 % of control
T/C (dose: 40.0 mg/kg/injection, schedule: Q04DX003 (ip), vehicle: Klucel (hydroxypropylcellulose) (HPC)): 153 % of control

O=C(O)c1cc(Br)cc(I)c1Br
T/C (dose: 100.0 mg/kg/injection, schedule: Q04DX002 (ip), vehicle: Klucel (hydroxypropylcellulose) (HPC)): 105 % of control
T/C (dose: 200.0 mg/kg/injection, schedule: Q04DX002 (ip), vehicle: Klucel (hydroxypropylcellulose) (HPC)): 117 % of control
T/C (dose: 400.0 mg/kg/injection, schedule: Q04DX002 (ip), vehicle: Klucel (hydroxypropylcellulose) (HPC)): 105 % of control

NNc1ncnc2nncnc12
T/C [11]: 98 % of control
T/C [12]: 105 % of control
T/C [13]: 104 % of control

C1=CC2OC1c1ccccc12
T/C (dose: 50.0 mg/kg/injection, schedule: Q01DX001 (ip), vehicle: carboxymethylcellulose (CMC)): 95 % of control
T/C (dose: 100.0 mg/kg/injection, schedule: Q01DX001 (ip), vehicle: carboxymethylcellulose (CMC)): 92 % of control
T/C (dose: 200.0 mg/kg/injection, schedule: Q01DX001 (ip), vehicle: carboxymethylcellulose (CMC)): 106 % of control
T/C (dose: 400.0 mg/kg/injection, schedule: Q01DX001 (ip), vehicle: carboxymethylcellulose (CMC)): 97 % of control

COC(=O)c1cn[nH]c1C(=O)OC
T/C [17]: 100 % of control
T/C [18]: 100 % of control
T/C [19]: 96 % of control

OC(c1ccccc1)(c1ccccc1)C(F)(F)C(F)(F)C(F)(F)F
T/C (dose: 222.0 mg/kg/injection, schedule: Q01DX Z (ip), vehicle: methylcellulose (MC)): 89 % of control
T/C (dose: 333.0 mg/kg/injection, schedule: Q01DX Z (ip), vehicle: methylcellulose (MC)): 96 % of control

O=c1c2ccccc2nc2sc3ccccc3n12
T/C (dose: 100.0 mg/kg/injection, schedule: Q01DX009 (ip), vehicle: other): 93 % of control
T/C (dose: 200.0 mg/kg/injection, schedule: Q01DX009 (ip), vehicle: other): 107 % of control
T/C (dose: 400.0 mg/kg/injection, schedule: Q01DX009 (ip), vehicle: other): 103 % of control

O=C(N/N=C/c1c(Cl)cccc1Cl)C1CCCO1 (centres undefined)
T/C (dose: 6.25 mg/kg/injection, schedule: Q01DX009 (ip), vehicle: Klucel (hydroxypropylcellulose) (HPC)): 96 % of control
T/C (dose: 12.5 mg/kg/injection, schedule: Q01DX009 (ip), vehicle: Klucel (hydroxypropylcellulose) (HPC)): 96 % of control
T/C (dose: 25.0 mg/kg/injection, schedule: Q01DX009 (ip), vehicle: Klucel (hydroxypropylcellulose) (HPC)): 95 % of control and 91 % of control

Cc1cc2nc(CO)[nH]c2cc1C
T/C [14]: 94 % of control
T/C [4]: 95 % of control
T/C [15]: 96 % of control
T/C [6]: 93 % of control
T/C [16]: 98 % of control
T/C [8]: 92 % of control

O=C1C2CCN(CC2)C1Cn1cnc2c(Cl)ncnc21 (centres undefined)
T/C [3]: 95 % of control
T/C [5]: 98 % of control

O=C(C[n+]1ccccc1CO)c1ccc(-c2ccc(C(=O)C[n+]3ccccc3CO)cc2)cc1
T/C (dose: 0.15 mg/kg/injection, schedule: Q04DX003 (ip), vehicle: saline): 97 % of control
T/C (dose: 0.3 mg/kg/injection, schedule: Q04DX003 (ip), vehicle: saline): 96 % of control
T/C (dose: 0.6 mg/kg/injection, schedule: Q04DX003 (ip), vehicle: saline): 100 % of control

C=CCOc1ccnc(-c2ccccc2)n1
T/C [3]: 92 % of control
T/C [5]: 95 % of control
T/C [7]: 98 % of control

c1ccc(N2CCN(c3ccccc3)C2C2CO2)cc1 (centres undefined)
T/C [1]: 95 % of control
T/C [2]: 97 % of control
T/C (dose: 400.0 mg/kg/injection, schedule: Q04DX003 (ip), vehicle: saline): 98 % of control

CCOC(=O)/C(C#N)=C\c1ccc(N(C)C)cc1
T/C (dose: 100.0 mg/kg/injection, schedule: Q01DX Z (ip), vehicle: methylcellulose (MC)): 106 % of control
T/C (dose: 200.0 mg/kg/injection, schedule: Q01DX Z (ip), vehicle: methylcellulose (MC)): 108 % of control
